Several values for one entry are separate records, joined by “and”; a condition that tells them apart may be missing. Equal entries are not always repeated.

The subject of assay [1] is drill holes in bone (femur) of male rats. Briefly: Healing of drill-hole defects in the femur of rats. Conditions: for bone healing activity: general statement. It counts as in vivo, rat. Here is the method:
In one representative study, male rats weighing approximately 350-400 grams received drill holes in bone which were then treated with pharmaceutical preparations containing GHL-Cu.
More specifically, on the day of surgery (Day 0), animals were sedated with pentobarbital (I.P., 35 mg/kg). The hair was clipped from the left rear upper limb, and the area was prepped in a sterile fashion. Using a #15 blade, a 2 cm incision was made on the lateral surface of the upper limb following the approximate location of the femur, extending from just below the crest of the ilium. The tensor fasciae latae muscle was exposed and incised parallel to the muscle filers (1 cm incision). Careful retraction of the muscle provided exposure of the vastus lateralis muscle overlying the femur. The approach to the femur was completed upon incision and retraction of this muscle. This provided exposure of 1 cm of the lateral and ventral surfaces of bone. Using a periosteal elevator, the surface of the femur was cleaned of periosteum. At this point, very little bleeding had been encountered. Using a Dremel drill fitted with a 1 mm diameter cutting burr, a hole was drilled in the femur to a depth of approximately 0.75 mm. Little bleeding was evident except in the rare case of marrow penetration. The area was irrigated and hemostasis achieved. At this point, a pharmaceutical preparation of the compositions of the present invention was applied to the exposed bone surface. The muscle was closed in layers using chromic suture, and the skin was closed with stainless steel wound clips. Structure and function of the muscles was intact following surgery, and very little, if any, morbidity was associated with the surgical procedure.
After 7 to 14 days, the animals were terminated and their femurs removed. Evidence of bone growth was determined from gross visualization of the defect using a Wild dissecting scope, and from subsequent histological preparations (decalcification, paraffin embedding, and Trichrome staining).
Results at 12 to 14 days following surgery utilizing pharmaceutical preparation B to accelerate the bone healing process are summarized in Table 2. Controls consisted of bones without treatment.
In a second study, defects were created in bones and pharmaceutical preparation E applied to the exposed bone in the same manner as described in Example 9.

Assay [2] concerns bone models implanted in rats. Briefly: Granulation tissue formation in stainless steel chambers (bone healing model) implanted subcutaneously in rats. It counts as in vivo, rat. Conditions: for PROTEIN: relative to BSA. The source says: The subcutaneous implantation of stainless steel chambers in rats provides a reproducible models to monitor the healing of bone. This model in many ways mimics the early events in the formation of granulation tissue found in fractures or other types of injury to bone. Implantation of these chambers triggers a series of responses which reflect the series of phases involved in bone healing--fibrin clot formation, infiltration of white cells, collagen synthesis, and new blood vessel formation.
The assay involves the implantation of two stainless steel chambers (1×2.5 cm cylindrical 312 SS, 20 mesh, with Teflon end caps) on each side of the dorsal midline of rats. After one week to allow for encapsulation of the chambers, one chamber on each rat was injected with 0.2 ml of a 10 mg/ml solution of GHL-Cu and the other with the same volume of saline. Injections are made on days […], 7, 8, 12, 13, 15 and 19. The chambers were removed on day 15 and day 29.
The chambers were lyophilized and the interior contents removed for biochemical analysis. The biochemical parameters examined include the total dry weight, protein content, angiogenesis (alkaline phosphatase activity), and collagen content (hydroxyproline content after acid hydrolysis). Significant increases were found in all the biochemical parameters tested when compounds of the present invention were used as compared to controls.
Protein content was determined by the method of Lowry (Lowry et al., J. Biol. Chem. 193:265-275, 1951) using Bovine Serum Albumin (BSA) as a standard. Angiogenesis was determined by measuring the amount of alkaline phosphatase activity using p-nitrophenyl phosphate as a substrate (Lyles et al., C. Biochem. Pharm. 33:2569-2574, 1984). The collagen content was determined by acid hydrolysis and a colorimetric assay for hydroxyproline (Bergman et al., R. Clin. Chim. Acta 27:347-349, 1970), an amino acid specific for collagen.
The total protein is expressed as mg protein (relative to BSA) per chamber, the angiogenesis as alkaline phosphatase (AP) units per chamber, where one unit=the amount of homogenate which causes an increase in absorbance at 405 nm of 1.0 per min., and the hydroxyproline (HP, Collagen Content) as μg HP per chamber. Comparison with control data is made by determining the ratio, treated/control (T/C) for each parameter.

For the substance “glycyl-L-histidyl-L-lysine:copper(II) [GHL-Cu]”, the “histology, periosteal layer (FIG. 6)” value in assay [1] (X40, Trichrome stain, versus placebo) is “better developed and continuous”. Further, the “histology, new bone (FIG. 7)” value in assay [1] (X 63, Trichrome stain, versus placebo) is “increase in density of new bone”. Moreover, the “gross appearance of bone defect (FIG. 5)” value in assay [1] (day 7, versus placebo gel) is “influx of bony calcification and granulation tissue”. Further, the bone healing activity result in assay [1] is “have shown bone healing activity”. In addition, in assay [2] (day 15), the “ANGIOGENESIS (alkaline phosphatase)” value turned out to be 6.5 ± 3.2 AP units/chamber, the “COLLAGEN (hydroxyproline)” value came to 243 ± 215 μg HP/chamber and the PROTEIN was determined as 69 ± 32 mg/chamber. Also, the “DRY WEIGHT” value in assay [2] (day 15, chamber injected with 0.2 ml of 10 mg/ml solution) was found to be 92 ± 46 mg. Besides, in assay [2] (day 15, ratio treated/control), the T/C dry weight is ~ 2 and 2.2; the T/C protein is ~ 2 and 2.0. Also, in assay [2] (day 29), the “ANGIOGENESIS (alkaline phosphatase)” value worked out at 20.3 ± 10.0 AP units/chamber, the “COLLAGEN (hydroxyproline)” value amounted to 1849 ± 546 μg HP/chamber, the “DRY WEIGHT” value was 165 ± 38 mg and the PROTEIN is reported as 77 ± 19 mg/chamber. Also, in assay [2] (day 29, ratio treated/control), the T/C angiogenesis amounted to 3.2, the T/C collagen was found to be 1.9, the T/C dry weight was determined as 1.7 and the T/C protein amounted to 1.4.
Turning to “L-lysyl-L-histidyl-glycine:copper(II) [LHG-Cu]”, the bone healing activity result in assay [1] is reported as “have shown bone healing activity”.
